{"source": "patent US20220132839A1", "about": "“MOSQUITO ATTRACTANT COMPOSITIONS” (UNIVERSITY OF WASHINGTON, priority 2019, published 2022)", "key": {"[1]": {"system": "Aedes mosquitoes", "test": "GC-EAD antennal responses, Aedes mosquitoes from the field", "from_the_text": "Electroantennogram signals were filtered and amplified (100×; 0.1-500 Hz) using an A-M 1800 amplifier (Sequim, Wash., USA) connected to a personal computer via a BNC-2090A analog-to-digital board (National Instruments, Austin, Tex., USA) and digitized at 20 Hz using WinEDR software (Strathclyde Electrophysiology Software, Glasgow, UK). A Hum Bug noise eliminator (Quest Scientific, Vancouver, Canada) was used to decrease electrical noise. The antennal responses to peaks eluting from the GC were measured for each mosquito preparation, and each peak and mosquito species. Bioactive peaks were those that elicited strong EAD responses, corresponding to deflections beyond the average noise floor of the baseline EAD signal. Responses by each individual preparation were used for Principal Component Analysis (Ade4 package, R). The responses of eight different mosquito species were tested to the scent extracts of three orchid species (n=8 mosquito species for P. obtusata; n=4 mosquito species each for P. stricta and P. huronensis; with 3-17 replicates per mosquito species per orchid, for a total of 109 GC-EAD experiments).\nIndividual mosquitoes were isolated in Falcon™ tubes (Thermo Fisher Scientific, Pittsburgh, Pa., USA) covered with a piece of fine mesh. They were maintained in a climatic chamber, as previously described, and identified immediately before running the experiment. Carbon dioxide delivered through a pad (Genesee Scientific, San Diego, Calif., USA) was used to briefly anesthetize mosquitoes before transferring them on ice for the dissection. The head was excised and the tip (i.e., one segment) of each antenna was cut off with fine scissors under a binocular microscope (Carl Zeiss, Oberkochen, Germany). The head was then mounted on an electrode composed of a silver wire 0.01″ (A-M Systems, Carlsbord, Wash., USA) and a borosilicate pulled capillary (Sutter Instrument Company, Novato, Calif., USA) filled with a 1:3 mix of saline (L. B. Thien, F. Utech, The mode of pollination in Habenaria obtusata (Orchidaceae). American Journal of Botany 57, 1031-1035 (1970) and electrode gel (Parker Laboratories, Fairfield, N.J., USA) in order to avoid the preparation to desiccate during the experiment. The head was mounted by the neck on the reference electrode. The preparation was then moved to the GC-EAD with the tips of the antennae inserted under the microscope (Optiphot-2, Nikon, Tokyo, Japan) into a recording electrode, that was identical to the reference electrode. The mounted antennae were oriented at 90° from the main airline which was carrying filtered air (Praxair, Danbury, Conn., USA) and volatiles eluting from the Gas-Chromatograph to the preparation via a 200° C. transfer line (EC-05; Syntech GmbH, Buchenbach, Germany). Five microliters of the orchid extract were injected into the Gas Chromatograph with Flame Ionization Detection (Agilent 7820A GC, Agilent Technologies; DB5 column, J&W Scientific, Folsom, Calif., USA). The oven program was the same as the one used for the GC-MS analyses of the scent extracts. The transfer line from the GC to the preparation was set to 200° C."}, "[2]": {"system": "Ae. aegypti AL glomeruli", "test": "Two-photon calcium imaging (PUb-GCaMP6s) of the antennal lobe, Ae. aegypti", "format": "in vivo", "settings": "for LC2 glomerulus response: single odorants; for effect of GABA-receptor antagonists on AM2 response to the P. obtusata scent / effect of GABA-receptor antagonists on LC2 and AM2 responses to the P. stricta scent: 1 μM CGP54626, 10 μM picrotoxin focally applied together on to the AL; for AM2 response with increasing dose: different concentrations; for AM2 glomerulus response: odor stimulation; for glomerular responses in the AL: imaged at 40 μm depth, particularly AL3 and LC2 glomeruli for the mixture", "from_the_text": "A total of twenty preparations were used: 10 for single odorant and orchid mixture experiments; 6 for ratio experiments; and 4 for experiments using GABA-receptor antagonists. […] The expression of GCaMP occurred in glia, local interneurons, and projection neurons. […] Thus, in the calcium imaging experiments care was taken to image from the central regions of the glomeruli and avoid the sheaths and external glomerular loci. […] Relatedly, GCaMP6s expression is very high in AL local interneurons and projection neurons (PNs), such that during odor stimulation the PNs and axonal processes can often be imaged, and 3D reconstructions can be take place through simultaneous optical sections with odor stimulation. Nonetheless, the glomerular responses were assumed to be a function of multiple cell types.\nSimilar to experiments with Ae. increpitus, the majority the mosquitoes were UV-glued to the stage to allow free movement of their wings and proboscis; however, for experiments using GABA-receptor antagonists the proboscis was glued to the stage for additional stability. Once the mosquito was fixed to the stage, a window in its head was cut to expose the brain, and the brain was continuously superfused with physiological saline.\nThus a provisional atlas was created with female mosquitoes (n=6) that allowed for cross-reference of the imaged glomeruli and comparison of their positions and structures to those described in the atlas. This was accomplished via clear glomerular boundaries, especially during odor stimulation, and the distinct odorant tuning of glomeruli throughout the depths of the AL (e.g., AM2 responsive to DEET; LC2 and AL3 responsive to nonanal; PD3 responsive to geosmin; and MD2 responsive to CO2) that allowed 3D registration across preparations and subsequent warping and referencing with the atlas.\nSaline and pharmacological agents. The saline was made based on the Beyenbach and Masia recipe (L. B. Thien, F. Utech, The mode of pollination in Habenaria obtusata (Orchidaceae). American Journal of Botany 57, 1031-1035 (1970)) and contained 150.0 mM NaCl, 25.0 mM N-2-hydroxyethyl-piperazine-N′-2-ethanesulfonic acid (HEPES), 5.0 mM sucrose, 3.4 mM KCl, 1.8 mM NaHCO3, 1.7 mM CaCl2, and 1.0 mM MgCl2. The pH was adjusted to 7 with 1 M NaOH. […] […] A drip system comprising two 100 mL reservoirs—one containing the GABA receptor antagonists, and the other saline—converged on the two-channel temperature controller to facilitate rapid switching from normal physiological saline solution to the antagonists and back. Antagonists were superfused directly into the holder near to the opening of the head capsule and recorded neuropil. The odor-evoked responses were first recorded under normal physiological saline solution and then repeated under GABA receptor antagonists diluted in normal saline solution, and finally the normal saline wash. All calcium imaging data were statistically analyzed using Kruskal-Wallis tests with multiple comparisons and visualized using Principal Components Analysis. Analyses were performed in Matlab (v2017; Mathworks, Natick, Mass.).\nOlfactory stimuli were delivered to the mosquito by pulses of air diverted through a 2 mL cartridge containing a piece of filter paper bearing the odor stimulus (2 An air line provided gentle and constant charcoal-filtered air at 1 m/s to the antennae allowing continuous ventilation to prevent adaptation of the olfactory receptor cells. The stimulus output was positioned in the air line 2 cm from and orthogonal to the mosquito antennae. For testing different ratios of lilac aldehyde and nonanal, two syringes bearing different concentrations of the odorants were used and positioned such that the outputs were positioned in the same location in the air stream. […]"}, "[3]": {"system": "Ae. increpitus mosquito antennal lobe (AL) glomeruli", "test": "Two-photon calcium imaging (Fluo4) of the antennal lobe, Ae. increpitus", "format": "in vivo", "settings": "single odorants", "experimental": "Odor-evoked responses in the Ae. increpitus mosquito antennal lobe (AL) with nine female mosquitoes at the beginning of the season when mosquitoes were relatively young (as defined by wing and scale appearance). Calcium imaging experiments were conducted using application of the calcium indicator Fluo4 to the mosquito brain and using a stage that allows simultaneous calcium imaging and tethered flight. The mosquito was cooled on ice and transferred to a Peltier-cooled holder that enables the mosquito to head to be fixed to the stage using ultraviolet glue. The custom stage permits the superfusion of saline to the head capsule and space for movement by the wings and proboscis. Once the mosquito was fixed to the stage, a window in its head was cut to expose the brain, and the brain was continuously superfused with physiological saline. Next, the perineural sheath was gently removed from the AL using fine forceps and 75 μL of the Fluo4 solution—made by […] of Fluo4 in 30 μL Pluronic F-127 and then subsequently diluted in 950 μL of mosquito physiological saline—was pipetted to the holder allowing the brain to be completely immersed in the dye. Mosquitoes were kept in the dark at 15° C. for 1.5 h (the appropriate time for adequate penetration of the dye into the tissue), after which the brain was washed 3 times with physiological saline. After the rinse, mosquitoes were kept in the dark at room temperature for approximately 10-20 min. before imaging.\nWing stroke amplitudes were acquired and analyzed using a custom camera-based computer vision system at frame rates of 100 Hz, where the mosquito was illuminated with infrared LEDs (880 nm) and images were collected with an infrared-sensitive camera synched to the two-photon system. Stimulus-evoked initiation of flight and changes in the amplitude of the wing-stroke envelope were characterized for each odor stimulus. Calcium-evoked responses in the AL were imaged using the Prairie Ultima IV two-photon excitation microscope (Prairie Technologies) and Ti-Sapphire laser (Chameleon Ultra; Coherent). Experiments were performed at a depth of 40 μm from the ventral surface of the AL, allowing the calcium dynamics from approximately 18-22 glomeruli to be repeatedly imaged across preparations. Images were collected at 2 Hz, and for each odor stimulus images were acquired for 35 s, starting 10 s before the stimulus onset. Imaging data were extracted in Fiji/ImageJ and imported into Matlab (v2017; Mathworks, Natick, Mass.) for Gaussian filtering (2×2 pixel; σ=1.5-3) and alignment using a single frame as the reference at a given imaging depth and subsequently registered to every frame to within ¼ pixel. Trigger-averaged ΔF/F was used for comparing glomerular responses between odor stimuli. […]"}, "[4]": {"settings": "scents of P. stricta and P. huronensis, Ae. increpitus, Ae. communis, Ae. canadensis and Culiseta sp."}, "[5]": {"settings": "odorant tuning used for glomerular registration"}, "[6]": {"settings": "lilac aldehyde and nonanal at different concentration ratios"}}, "note": "“Also recorded” adds a separate entry of the source.", "data": [{"compound": "C=CC(C)(O)CCC=C(C)C", "note": "(racemic) [linalool]", "values": [{"measurement": "antennal responses (GC-EAD)", "setting": "[1]; [4]", "result": "all responded"}]}, {"compound": "CCCCCCCCO", "note": "[1-octanol]", "values": [{"measurement": "LC2 glomerulus response", "setting": "[2]", "result": "strongest response"}, {"measurement": "LC2 glomerulus response", "setting": "[3]", "result": "strongest response"}]}, {"compound": "C[C@H](NC[C@H](O)CP(=O)(O)CC1CCCCC1)c1ccc(Cl)c(Cl)c1", "note": "[CGP54626, reference compound]", "values": [{"measurement": "effect of GABA-receptor antagonists on AM2 response to the P. obtusata scent", "setting": "[2]", "result": "the effect of nonanal was blocked"}, {"measurement": "effect of GABA-receptor antagonists on LC2 and AM2 responses to the P. stricta scent", "setting": "[2]", "result": "blocked the symmetrical inhibition by nonanal and lilac aldehyde"}]}, {"compound": "O=C=O", "note": "[CO2, reference compound]", "values": [{"measurement": "MD2 glomerulus response", "setting": "[2]; [5]", "result": "responsive"}]}, {"compound": "CCN(CC)C(=O)c1cccc(C)c1", "note": "[DEET, N,N-diethyl-meta-toluamide, reference compound]", "values": [{"measurement": "AM2 response with increasing dose", "setting": "[2]", "result": "significant increases in response with increasing dose"}, {"measurement": "AM2 glomerulus response", "setting": "[2]", "result": "responsive"}]}, {"compound": "O=Cc1ccccc1", "note": "[benzaldehyde]", "values": [{"measurement": "antennal responses (GC-EAD)", "setting": "[1]; [4]", "result": "all responded"}]}, {"compound": "C=C1C2CCC(C2)C1(C)C", "note": "(stereo not drawn) [camphene]", "values": [{"measurement": "antennal responses (GC-EAD)", "setting": "[1]; peaks of the P. obtusata scent", "result": "evoked antennal responses"}]}, {"compound": "CC1CCCC2(C)CCCCC12O", "note": "(stereo not drawn) [geosmin, reference compound]", "values": [{"measurement": "PD3 glomerulus response", "setting": "[2]; [5]", "result": "responsive"}]}, {"compound": "C=CC1(C)CCC(C(C)C=O)O1", "note": "(stereo not drawn) [lilac aldehyde, 5-dimethyl-5-ethenyl-2-tetrahydrofuranacetaldehydes]", "values": [{"measurement": "AM2 response with increasing dose", "setting": "[2]", "result": "significant increases in response with increasing dose"}, {"measurement": "glomerular responses in the AL", "setting": "[2]", "result": "strong responses"}, {"measurement": "AM2 response to lilac aldehyde/nonanal mixtures", "setting": "[2]; [6]", "result": "increased AM2 activation"}, {"measurement": "LC2 response to lilac aldehyde/nonanal mixtures", "setting": "[2]; [6]", "result": "suppressed the response of LC2 to nonanal"}, {"measurement": "AM2 glomerulus response to orchid mixtures", "setting": "[2]; mixtures with lilac aldehyde scaled to other Platanthera species, compared with P. obtusata, Kruskal-Wallis p<0.05", "result": "significant increase in AM2 responses"}, {"measurement": "LC2 glomerulus response to orchid mixtures", "setting": "[2]; mixtures with lilac aldehyde scaled to other Platanthera species, nonanal as in the P. obtusata mixture, Kruskal-Wallis p<0.05", "result": "significant suppression of LC2 response"}, {"measurement": "AM2 glomerulus response", "setting": "[2]", "result": "strongest response; also recorded: responsive"}, {"measurement": "antennal responses (GC-EAD)", "setting": "[1]; high concentration in the scent of P. stricta, lesser in P. huronensis, antennae of Ae. increpitus and Ae. communis", "result": "relatively strong responses"}, {"measurement": "antennal responses (GC-EAD)", "setting": "[1]; peaks of the P. obtusata scent", "result": "evoked antennal responses"}, {"measurement": "antennal responses (GC-EAD)", "setting": "[1]; [4]", "result": "all responded"}]}, {"compound": "CCCCCCCC=O", "note": "[octanal]", "values": [{"measurement": "glomerular responses in the AL", "setting": "[2]", "result": "strong responses"}, {"measurement": "LC2 glomerulus response", "setting": "[2]", "result": "strongest response"}, {"measurement": "LC2 glomerulus response", "setting": "[3]", "result": "strongest response"}, {"measurement": "antennal responses (GC-EAD)", "setting": "[1]; peaks of the P. obtusata scent", "result": "evoked antennal responses"}]}, {"compound": "CC1=CCC2CC1C2(C)C", "note": "(stereo not drawn) [α-pinene]", "values": [{"measurement": "antennal responses (GC-EAD)", "setting": "[1]; peaks of the P. obtusata scent", "result": "evoked antennal responses"}]}, {"compound": "C=CC(=C)CCC=C(C)C", "note": "[β-myrcene]", "values": [{"measurement": "antennal responses (GC-EAD)", "setting": "[1]; [4]", "result": "all responded"}]}, {"compound": "C=C1CCC2CC1C2(C)C", "note": "(stereo not drawn) [β-pinene]", "values": [{"measurement": "antennal responses (GC-EAD)", "setting": "[1]; peaks of the P. obtusata scent", "result": "evoked antennal responses"}]}, {"compound": "picrotoxin [reference compound]", "values": [{"measurement": "effect of GABA-receptor antagonists on AM2 response to the P. obtusata scent", "setting": "[2]", "result": "the effect of nonanal was blocked"}, {"measurement": "effect of GABA-receptor antagonists on LC2 and AM2 responses to the P. stricta scent", "setting": "[2]", "result": "blocked the symmetrical inhibition by nonanal and lilac aldehyde"}]}]}
